Source: patent publication US10117430B2, “Malononitrile compounds for controlling animal pests” (BASF SE, priority 2012, dated 2018)

What was measured:
Format in all cases: in vivo
[1] = system: Red Spider Mite (Tetranychus kanzawai); assay: B.10 Red spider mite test on sprayed cowpea beans; settings: in comparison with untreated controls, 72 hours after treatment
Experimental: B.10 Red Spider Mite (Tetranychus kanzawai)
The active compound is dissolved at the desired concentration in a mixture of 1:1 (vol:vol) distilled water:acetone. Add surfactant (Alkamuls® EL 620) at the rate of 0.1% (vol/vol). The test solution is prepared at the day of use. Potted cowpea beans of 7-10 days of age were cleaned with tap water and sprayed with 5 ml of the test solution using air driven hand atomizer. The treated plants were allowed to air dry and afterwards inculated with 20 or more mites by clipping a cassava leaf section with known mite population. Treated plants were placed inside a holding room at about 25-27° C. and about 50-60% relative humidity. Percent mortality was assessed 72 hours after treatment.

[2] = system: Yellow Fever Mosquito (Aedes aegypti); assay: whole plant or invertebrate; settings: 48 h, in comparison with untreated controls, larval mortality after 2 days
Experimental: B.12 Yellow Fever Mosquito (Aedes aegypti)
For evaluating control of yellow fever mosquito (Aedes aegypti) the test unit consisted of 96-well-microtiter plates containing 200 μl of tap water per well and 5-15 freshly hatched A. aegypti larvae. The compounds or mixtures were formulated using a solution containing 75% water and 25% DMSO. Different concentrations of formulated compounds or mixtures were sprayed onto the insect diet at 2.5 μl, using a custom built micro atomizer, at two replications. After application, microtiter plates were incubated at 28±1° C., 80±5% relative humidity for 2 days. Larval mortality was then visually assessed.

[3] = system: Green Peach Aphid (Myzus persicae); assay: B.3 Green peach aphid systemic test, artificial diet under membrane; settings: 72 h, concentration of the test solution 2500 mg/L, 3 days
Source text: B.3 Green Peach Aphid (Myzus persicae)
For evaluating control of green peach aphid (Myzus persicae) through systemic means the test unit consisted of 96-well-microtiter plates containing liquid artificial diet under an artificial membrane. The compounds were formulated using a solution containing 75% v/v water and 25% v/v DMSO. Different concentrations of formulated compounds were pipetted into the aphid diet, using a custom built pipetter, at two replications. After application, 5-8 adult aphids were placed on the artificial membrane inside the microtiter plate wells. The aphids were then allowed to suck on the treated aphid diet and incubated at about 23±1° C. and about 50±5% relative humidity for 3 days. Aphid mortality and fecundity was then visually assessed.

[4] = system: Cowpea Aphid (Aphis craccivora); assay: B.1 Cowpea aphid spray test on potted cowpea plants; settings: in comparison with untreated controls, population reduction assessed after 24, 72 and 120 hours
Experimental: B.1 Cowpea Aphid (Aphis craccivora)
The active compounds were formulated in 50:50 (v/v) acetone:water. The test solution was prepared at the day of use. Potted cowpea plants colonized with approximately 100-150 aphids of various stages were sprayed after the pest population has been recorded. Population reduction was assessed after 24, 72, and 120 hours.

[5] = system: Vetch Aphid (Megoura viciae); assay: B.7 Vetch aphid test on broad bean leaf disks; settings: foliar, 120 h, in comparison with untreated controls, 5 days
Experimental: B.7 Vetch Aphid (Megoura viciae)
For evaluating control of vetch aphid (Megoura viciae) through contact or systemic means the test unit consisted of 24-well-microtiter plates containing broad bean leaf disks. The compounds were formulated using a solution containing 75% v/v water and 25% v/v DMSO. Different concentrations of formulated compounds were sprayed onto the leaf disks at 2.5 μl, using a custom built micro atomizer, at two replications. After application, the leaf disks were air-dried and 5-8 adult aphids placed on the leaf disks inside the microtiter plate wells. The aphids were then allowed to suck on the treated leaf disks and incubated at about 23±1° C. and about 50±5% relative humidity for 5 days. Aphid mortality and fecundity was then visually assessed.

[6] = system: Boll Weevil (Anthonomus grandis); assay: B.9 Boll weevil microtiter diet test, egg and larval mortality; settings: 120 h, in comparison with untreated controls, egg and larval mortality after 5 days
Experimental: B.9 Boll Weevil (Anthonomus grandis)
For evaluating control of boll weevil (Anthonomus grandis) the test unit consisted of 24-well-microtiter plates containing an insect diet and 20-30 A. grandis eggs. The compounds were formulated using a solution containing 75% v/v water and 25% v/v DMSO. Different concentrations of formulated compounds were sprayed onto the insect diet at 20 μl, using a custom built micro atomizer, at two replications. After application, microtiter plates were incubated at about 23±1° C. and about 50±5% relative humidity for 5 days. Egg and larval mortality was then visually assessed.

[7] = system: Mediterranean Fruitfly (Ceratitis capitata); assay: B.2 Mediterranean fruitfly microtiter diet test, egg and larval mortality; settings: 120 h, in comparison with untreated controls, egg and larval mortality after 5 days
Experimental: B.2 Mediterranean Fruitfly (Ceratitis capitata)
For evaluating control of Mediterranean fruitfly (Ceratitis capitata) the test unit consisted of microtiter plates containing an insect diet and 50-80 C. capitata eggs. The compounds were formulated using a solution containing 75% v/v water and 25% v/v DMSO. Different concentrations of formulated compounds were sprayed onto the insect diet at 5 μl, using a custom built micro atomizer, at two replications. After application, microtiter plates were incubated at about 28±1° C. and about 80±5% relative humidity for 5 days. Egg and larval mortality was then visually assessed.

[8] = system: Rice brown plant hopper (Nilaparvata lugens); assay: B.11 Rice brown plant hopper test on sprayed rice seedlings; settings: in comparison with untreated controls, after 72 hours
Experimental: B.11 Rice brown plant hopper (Nilaparvata lugens)
Rice seedlings were cleaned and washed 24 hours before spraying. The active compounds were formulated in 50:50 acetone:water (vol:vol) and 0.1% vol/vol surfactant (EL 620) was added. Potted rice seedlings were sprayed with 5 ml test solution, air dried, placed in cages and inoculated with 10 adults. Treated rice plants were kept at about 28-29° C. and relative humidity of about 50-60%. Percent mortality was recorded after 72 hours.

[9] = system: Green Soldier Stink Bug (Nezara viridula); assay: B.15 Green soldier stink bug test on sprayed soybean pods; settings: 120 h, in comparison with untreated controls, after 5 days
Experimental: B.15 Green Soldier Stink Bug (Nezara viridula)
The active compound is dissolved at the desired concentration in a mixture of 1:1 (vol:vol) distilled water:aceteone. Surfactant (Kinetic HV) is added at a rate of 0.01% (vol/vol). The test solution is prepared at the day of use. Soybean pods were placed in microwavable plastic cups lined with moist filter paper and inoculated with ten 3rd instar N. viridula. Using a hand atomizer, an approximately 2 ml solution is sprayed into each cup. Treated cups were kept at about 28-29° C. and relative humidity of about 50-60%. Percent mortality was recorded after 5 days.

[10] = system: Orchid Thrips (Dichromothrips corbetti); assay: B.4 Orchid thrips floral-immersion test; settings: 96 h, in comparison with untreated controls, after 4 days
Experimental: B.4 Orchid Thrips (Dichromothrips Corbetti)
Dichromothrips corbetti adults used for bioassay are obtained from a colony maintained continuously under laboratory conditions. For testing purposes, the test compound is diluted to a concentration of 300 ppm (wt compound: vol diluent) in a 1:1 mixture of acetone:water (vol:vol), plus 0.01% vol/vol Kinetic® surfactant. Thrips potency of each compound is evaluated by using a floral-immersion technique. Plastic petri dishes are used as test arenas. All petals of individual, intact orchid flowers are dipped into treatment solution and allowed to dry. Treated flowers are placed into individual petri dishes along with 10-15 adult thrips. The petri dishes are then covered with lids. All test arenas are held under continuous light and a temperature of about 28° C. for duration of the assay. After 4 days, the numbers of live thrips are counted on each flower, and along inner walls of each petri dish. The level of thrips mortality is extrapolated from pre-treatment thrips numbers.

[11] = system: Silverleaf Whitefly (Bemisia argentifolii); assay: B.5 Silverleaf whitefly test on sprayed cotton plants; settings: 72 h, in comparison with untreated controls, 3 days after treatment
Experimental: B.5 Silverleaf Whitefly (Bemisia argentifolii)
The active compounds were formulated in cyclohexanone as a 10,000 ppm solution supplied in 1.3 ml ABgene® tubes. These tubes were inserted into an automated electrostatic sprayer equipped with an atomizing nozzle and they served as stock solutions for which lower dilutions were made in 50% acetone:50% water (v/v). A nonionic surfactant (Kinetic®) was included in the solution at a volume of 0.01% (v/v). Cotton plants at the cotyledon stage (one plant per pot) were sprayed by an automated electrostatic plant sprayer equipped with an atomizing spray nozzle. The plants were dried in the sprayer fume hood and then removed from the sprayer. Each pot was placed into a plastic cup and 10 to 12 whitefly adults (approximately 3-5 days old) were introduced. The insects were collected using an aspirator and 0.6 cm, nontoxic Tygon® tubing (R-3603) connected to a barrier pipette tip. The tip, containing the collected insects, was then gently inserted into the soil containing the treated plant, allowing insects to crawl out of the tip to reach the foliage for feeding. Cups were covered with a reusable screened lid (150-micron mesh polyester screen PeCap from Tetko, Inc.). Test plants were maintained in a growth room at 25° C. and 20-40% relative humidity for 3 days, avoiding direct exposure to fluorescent light (24 hour photoperiod) to prevent trapping of heat inside the cup. Mortality was assessed 3 days after treatment, compared to untreated control plants.

[12] = system: Tobacco Budworm (Heliothis virescens); assay: B.8 Tobacco budworm test on sprayed cotton plants; settings: 96 h, in comparison with untreated controls, 4 days after treatment
Experimental: B.8 Tobacco Budworm (Heliothis virescens) I
The active compounds were formulated in cyclohexanone as a 10,000 ppm solution supplied in tubes. The tubes were inserted into an automated electrostatic sprayer equipped with an atomizing nozzle and they served as stock solutions for which lower dilutions were made in 50% acetone:50% water (v/v). A nonionic surfactant (Kinetic®) was included in the solution at a volume of 0.01% (v/v). Cotton plants were grown 2 plants to a pot and selected for treatment at the cotyledon stage. Test solutions were sprayed onto the foliage by an automated electrostatic plant sprayer equipped with an atomizing spray nozzle. The plants were dried in the sprayer fume hood and then removed from the sprayer. Each pot was placed into perforated plastic bags with a zip closure. About 10 to 11 budworm larvae were placed into the bag and the bags zipped closed. Test plants were maintained in a growth room at about 25° C. and about 20-40% relative humidity for 4 days, avoiding direct exposure to fluorescent light (24 hour photoperiod) to prevent trapping of heat inside the bags. Mortality and reduced feeding were assessed 4 days after treatment, compared to untreated control plants.

[13] = system: Southern Armyworm (Spodoptera eridania); assay: B.6 Southern armyworm test on sprayed lima bean plants; settings: 96 h, 500 ppm, in comparison with untreated controls, 4 days after treatment
Experimental: B.6 Southern Armyworm (Spodoptera eridania)
The active compounds were formulated in cyclohexanone as a 10,000 ppm solution supplied in 1.3 ml ABgene® tubes. These tubes were inserted into an automated electrostatic sprayer equipped with an atomizing nozzle and they served as stock solutions for which lower dilutions were made in 50% acetone:50% water (v/v). A nonionic surfactant (Kinetic®) was included in the solution at a volume of 0.01% (v/v). Lima bean plants (variety Sieva) were grown 2 plants to a pot and selected for treatment at the 1st true leaf stage. Test solutions were sprayed onto the foliage by an automated electrostatic plant sprayer equipped with an atomizing spray nozzle. The plants were dried in the sprayer fume hood and then removed from the sprayer. Each pot was placed into perforated plastic bags with a zip closure. Ten to 11 armyworm larvae were placed into the bag and the bags zipped closed. Test plants were maintained in a growth room at 25° C. and 20-40% relative humidity for 4 days, avoiding direct exposure to fluorescent light (24 hour photoperiod) to prevent trapping of heat inside the bags. Mortality and reduced feeding were assessed 4 days after treatment, compared to untreated control plants.

N#CC(C#N)(Cc1cnc(C(F)(F)F)nc1)c1ccccc1 [II-20]
≥ 75%: mortality at 500 ppm [1] | mortality at 2500 ppm [2] | mortality at 2500 µg/mL [3] | mortality at 500 ppm [4] | mortality at 2500 ppm [5] | mortality at 2500 ppm [6] | mortality at 2500 ppm [7] | mortality at 300 ppm [8] | mortality at 500 ppm [9] | mortality at 500 ppm [10] | mortality at 500 ppm [11]

N#CC(C#N)(Cc1cccnc1)c1ccccc1 [II-31]
≥ 75%: mortality at 2500 ppm [12] | mortality at 2500 ppm [6] | mortality at 500 ppm [11]

N#CC(C#N)(Cc1ncc(C(F)(F)F)cn1)c1ccccc1 [II-16]
≥ 75%: mortality at 500 ppm [1] | mortality at 2500 ppm [2] | mortality at 2500 µg/mL [3] | mortality at 500 ppm [13] | mortality at 500 ppm [4] | mortality at 2500 ppm [5] | mortality at 2500 ppm [6] | mortality at 300 ppm [8] | mortality at 500 ppm [10] | mortality at 500 ppm [11]

N#CC(C#N)(Cc1ccc(F)nc1F)c1ccccc1 [II-50]
≥ 75%: mortality at 2500 ppm [2] | mortality at 2500 ppm [12] | mortality at 500 ppm [10]

CC(c1ccc(F)cn1)C(C#N)(C#N)c1ccc(F)cc1 (stereo not shown) [II-9]
≥ 75%: mortality at 500 ppm [1] | mortality at 2500 ppm [2] | mortality at 2500 µg/mL [3] | mortality at 2500 ppm [6] | mortality at 300 ppm [8] | mortality at 500 ppm [11]

N#CC(C#N)(Cc1ccc(C(F)(F)F)nc1)c1cc(F)c(F)c(F)c1 [II-43]
≥ 75%: mortality at 500 ppm [1] | mortality at 2500 ppm [2] | mortality at 2500 µg/mL [3] | mortality at 500 ppm [4] | mortality at 2500 ppm [5] | mortality at 2500 ppm [6] | mortality at 2500 ppm [7] | mortality at 300 ppm [8] | mortality at 500 ppm [10]

N#CC(C#N)(Cc1ccc(F)nc1F)c1ccc(F)cc1 [II-51]
≥ 75%: mortality at 500 ppm [1] | mortality at 2500 ppm [2] | mortality at 500 ppm [10]

N#CC(C#N)(Cc1cnc(C(F)(F)F)cn1)c1cccc(F)c1 [II-28]
≥ 75%: mortality at 500 ppm [1] | mortality at 2500 ppm [2] | mortality at 500 ppm [4] | mortality at 2500 ppm [5] | mortality at 2500 ppm [6] | mortality at 500 ppm [10] | mortality at 500 ppm [11]
